Reference: PubChem BioAssay AID1963986 (Molecular Pharmacology Branch, DTP, NCI, 2024)

System: 171881-019-R-J1-PDC tumor spheroid viability
Assay: Anticancer human tumor 171881-019-R-J1-PDC patient-derived invasive breast carcinoma cell line growth inhibition [PI3K]
Settings: spheroids with HUVEC and MSC; for IC50: curve of first compound; for viability, T/C: stronger effect = lower value
Method in brief: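 We assembled tumor spheroids that included a stromal compartment of HUVEC and MSCs, then exposed them to targeted agents alone and together with PI3K pathway inhibitors. Concentration series descended by half-log from clinically achievable Cmax levels. Viability served as the endpoint.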

[1] = second compound 0.0316 µM, first compound 0.000316 µM
[2] = second compound 0.0316 µM, first compound 0.001 µM
[3] = second compound 0.0316 µM, first compound 0.00316 µM
[4] = second compound 0.0316 µM, first compound 0.01 µM
[5] = second compound 0.0316 µM, first compound 0.0316 µM
[6] = second compound 0.0316 µM, first compound 0.1 µM
[7] = second compound 0.1 µM, first compound 0.000316 µM
[8] = second compound 0.1 µM, first compound 0.001 µM
[9] = second compound 0.1 µM, first compound 0.00316 µM
[10] = second compound 0.1 µM, first compound 0.01 µM
[11] = second compound 0.1 µM, first compound 0.0316 µM
[12] = second compound 0.1 µM, first compound 0.1 µM
[13] = second compound 0.316 µM, first compound 0.000316 µM
[14] = second compound 0.316 µM, first compound 0.001 µM
[15] = second compound 0.316 µM, first compound 0.00316 µM
[16] = second compound 0.316 µM, first compound 0.01 µM
[17] = second compound 0.316 µM, first compound 0.0316 µM
[18] = second compound 0.316 µM, first compound 0.1 µM
[19] = second compound 1 µM, first compound 0.000316 µM
[20] = second compound 1 µM, first compound 0.001 µM
[21] = second compound 1 µM, first compound 0.00316 µM
[22] = second compound 1 µM, first compound 0.01 µM
[23] = second compound 1 µM, first compound 0.0316 µM
[24] = second compound 1 µM, first compound 0.1 µM
[25] = second compound 3.16 µM, first compound 0.000316 µM
[26] = second compound 3.16 µM, first compound 0.001 µM
[27] = second compound 3.16 µM, first compound 0.00316 µM
[28] = second compound 3.16 µM, first compound 0.01 µM
[29] = second compound 3.16 µM, first compound 0.0316 µM
[30] = second compound 3.16 µM, first compound 0.1 µM
[31] = second compound 10 µM, first compound 0.000316 µM
[32] = second compound 10 µM, first compound 0.001 µM
[33] = second compound 10 µM, first compound 0.00316 µM
[34] = second compound 10 µM, first compound 0.01 µM
[35] = second compound 10 µM, first compound 0.0316 µM
[36] = second compound 10 µM, first compound 0.1 µM
[37] = second compound 0.0316 µM, first compound 0.316 µM
[38] = second compound 0.0316 µM, first compound 1 µM
[39] = second compound 0.0316 µM, first compound 3.16 µM
[40] = second compound 0.0316 µM, first compound 10 µM
[41] = second compound 0.1 µM, first compound 0.316 µM
[42] = second compound 0.1 µM, first compound 1 µM
[43] = second compound 0.1 µM, first compound 3.16 µM
[44] = second compound 0.1 µM, first compound 10 µM
[45] = second compound 0.316 µM, first compound 0.316 µM
[46] = second compound 0.316 µM, first compound 1 µM
[47] = second compound 0.316 µM, first compound 3.16 µM
[48] = second compound 0.316 µM, first compound 10 µM
[49] = second compound 1 µM, first compound 0.316 µM
[50] = second compound 1 µM, first compound 1 µM
[51] = second compound 1 µM, first compound 3.16 µM
[52] = second compound 1 µM, first compound 10 µM
[53] = second compound 3.16 µM, first compound 0.316 µM
[54] = second compound 3.16 µM, first compound 1 µM
[55] = second compound 3.16 µM, first compound 3.16 µM
[56] = second compound 3.16 µM, first compound 10 µM
[57] = second compound 10 µM, first compound 0.316 µM
[58] = second compound 10 µM, first compound 1 µM
[59] = second compound 10 µM, first compound 3.16 µM
[60] = second compound 10 µM, first compound 10 µM
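Further: spheroids exposed to compound for 7 days before viability read.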
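Wherever viability, T/C is given: 100% = DMSO vehicle-treated spheroids.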

Structure (SMILES): CC(=O)c1c(C)c2cnc(Nc3ccc(N4CCNCC4)cn3)nc2n(C2CCCC2)c1=O + Cc1nc(NC(=O)N2CCCC2C(N)=O)sc1-c1ccnc(C(C)(C)C(F)(F)F)c1
- IC50 (second compound 0.0316 µM): > 100 nM
- IC50 (second compound 0.1 µM): > 100 nM
- IC50 (second compound 0.316 µM): > 100 nM
- IC50 (second compound 1 µM): < 0.316 nM
- IC50 (second compound 3.16 µM): < 0.316 nM
- IC50 (second compound 10 µM): < 0.316 nM
- viability, T/C [1]: 106%
- viability, T/C [2]: 96.3%
- viability, T/C [3]: 91.2%
- viability, T/C [4]: 101%
- viability, T/C [5]: 105%
- viability, T/C [6]: 88.6%
- viability, T/C [7]: 78.9%
- viability, T/C [8]: 79%
- viability, T/C [9]: 84.8%
- viability, T/C [10]: 88.9%
- viability, T/C [11]: 88.3%
- viability, T/C [12]: 82.6%
- viability, T/C [13]: 57.9%
- viability, T/C [14]: 61.5%
- viability, T/C [15]: 54.3%
- viability, T/C [16]: 63.2%
- viability, T/C [17]: 63.1%
- viability, T/C [18]: 63.2%
- viability, T/C [19]: 33%
- viability, T/C [20]: 33.7%
- viability, T/C [21]: 37.3%
- viability, T/C [22]: 37.6%
- viability, T/C [23]: 43.8%
- viability, T/C [24]: 38.8%
- viability, T/C [25]: 14.1%
- viability, T/C [26]: 14.3%
- viability, T/C [27]: 16.5%
- viability, T/C [28]: 17.3%
- viability, T/C [29]: 18%
- viability, T/C [30]: 18.4%
- viability, T/C [31]: 4.32%
- viability, T/C [32]: 3.84%
- viability, T/C [33]: 4.16%
- viability, T/C [34]: 4.4%
- viability, T/C [35]: 5.31%
- viability, T/C [36]: 4.87%

Structure (SMILES): CC(C)n1nc(-c2ccc3oc(N)nc3c2)c2c(N)ncnc21 + Cc1nc(NC(=O)N2CCCC2C(N)=O)sc1-c1ccnc(C(C)(C)C(F)(F)F)c1
- IC50 (second compound 0.0316 µM): 6.6 nM
- IC50 (second compound 0.1 µM): 4.2 nM
- IC50 (second compound 0.316 µM): 0.378 nM
- IC50 (second compound 1 µM): < 0.316 nM
- IC50 (second compound 3.16 µM): < 0.316 nM
- IC50 (second compound 10 µM): < 0.316 nM
- viability, T/C [1]: 93.8%
- viability, T/C [2]: 78%
- viability, T/C [3]: 63.1%
- viability, T/C [4]: 46.8%
- viability, T/C [5]: 16.1%
- viability, T/C [6]: 3.37%
- viability, T/C [7]: 79.6%
- viability, T/C [8]: 74.2%
- viability, T/C [9]: 52.7%
- viability, T/C [10]: 35.6%
- viability, T/C [11]: 13.1%
- viability, T/C [12]: 4.36%
- viability, T/C [13]: 52%
- viability, T/C [14]: 44%
- viability, T/C [15]: 38%
- viability, T/C [16]: 22.4%
- viability, T/C [17]: 8.1%
- viability, T/C [18]: 2.79%
- viability, T/C [19]: 31.4%
- viability, T/C [20]: 26.7%
- viability, T/C [21]: 18.5%
- viability, T/C [22]: 10.9%
- viability, T/C [23]: 4.74%
- viability, T/C [24]: 2.58%
- viability, T/C [25]: 11.9%
- viability, T/C [26]: 11.9%
- viability, T/C [27]: 8.19%
- viability, T/C [28]: 5.31%
- viability, T/C [29]: 3.23%
- viability, T/C [30]: 2.15%
- viability, T/C [31]: 3.18%
- viability, T/C [32]: 3.44%
- viability, T/C [33]: 2.64%
- viability, T/C [34]: 2.7%
- viability, T/C [35]: 2.05%
- viability, T/C [36]: 1.46%

Structure (SMILES): CC1(C)CCC(CN2CCN(c3ccc(C(=O)NS(=O)(=O)c4ccc(NCC5CCOCC5)c([N+](=O)[O-])c4)c(Oc4cnc5[nH]ccc5c4)c3)CC2)=C(c2ccc(Cl)cc2)C1 + Cc1nc(NC(=O)N2CCCC2C(N)=O)sc1-c1ccnc(C(C)(C)C(F)(F)F)c1
- IC50 (second compound 0.0316 µM): 3840 nM
- IC50 (second compound 0.1 µM): 3340 nM
- IC50 (second compound 0.316 µM): 1530 nM
- IC50 (second compound 1 µM): < 31.6 nM
- IC50 (second compound 3.16 µM): < 31.6 nM
- IC50 (second compound 10 µM): < 31.6 nM
- viability, T/C [5]: 102%
- viability, T/C [6]: 86.9%
- viability, T/C [37]: 90.8%
- viability, T/C [38]: 81.5%
- viability, T/C [39]: 56.6%
- viability, T/C [40]: 13.9%
- viability, T/C [11]: 94.3%
- viability, T/C [12]: 70.6%
- viability, T/C [41]: 75.5%
- viability, T/C [42]: 73.7%
- viability, T/C [43]: 52%
- viability, T/C [44]: 13.1%
- viability, T/C [17]: 54.8%
- viability, T/C [18]: 52.6%
- viability, T/C [45]: 56.1%
- viability, T/C [46]: 57.6%
- viability, T/C [47]: 41%
- viability, T/C [48]: 10.3%
- viability, T/C [23]: 33.8%
- viability, T/C [24]: 34.3%
- viability, T/C [49]: 33.6%
- viability, T/C [50]: 33.4%
- viability, T/C [51]: 31.6%
- viability, T/C [52]: 8.49%
- viability, T/C [29]: 13.2%
- viability, T/C [30]: 14.2%
- viability, T/C [53]: 12.7%
- viability, T/C [54]: 14.6%
- viability, T/C [55]: 15.9%
- viability, T/C [56]: 5.35%
- viability, T/C [35]: 3.36%
- viability, T/C [36]: 3.47%
- viability, T/C [57]: 3.28%
- viability, T/C [58]: 3.12%
- viability, T/C [59]: 3.52%
- viability, T/C [60]: 2.22%

Structure (SMILES): CCCS(=O)(=O)Nc1ccc(F)c(C(=O)c2c[nH]c3ncc(-c4ccc(Cl)cc4)cc23)c1F + Cc1nc(NC(=O)N2CCCC2C(N)=O)sc1-c1ccnc(C(C)(C)C(F)(F)F)c1
- IC50 (second compound 0.0316 µM): 5560 nM
- IC50 (second compound 0.1 µM): 5710 nM
- IC50 (second compound 0.316 µM): 4720 nM
- IC50 (second compound 1 µM): < 31.6 nM
- IC50 (second compound 3.16 µM): < 31.6 nM
- IC50 (second compound 10 µM): < 31.6 nM
- viability, T/C [5]: 97.5%
- viability, T/C [6]: 91%
- viability, T/C [37]: 97.2%
- viability, T/C [38]: 92.2%
- viability, T/C [39]: 86.9%
- viability, T/C [40]: 11.7%
- viability, T/C [11]: 92.4%
- viability, T/C [12]: 99.3%
- viability, T/C [41]: 99.3%
- viability, T/C [42]: 97.5%
- viability, T/C [43]: 91.8%
- viability, T/C [44]: 10.3%
- viability, T/C [17]: 57.6%
- viability, T/C [18]: 60.3%
- viability, T/C [45]: 73.7%
- viability, T/C [46]: 87.1%
- viability, T/C [47]: 82.2%
- viability, T/C [48]: 8.31%
- viability, T/C [23]: 32.2%
- viability, T/C [24]: 36.7%
- viability, T/C [49]: 40.8%
- viability, T/C [50]: 49%
- viability, T/C [51]: 50.2%
- viability, T/C [52]: 5.09%
- viability, T/C [29]: 15.2%
- viability, T/C [30]: 16.1%
- viability, T/C [53]: 18.9%
- viability, T/C [54]: 21.9%
- viability, T/C [55]: 23.4%
- viability, T/C [56]: 2.52%
- viability, T/C [35]: 3.53%
- viability, T/C [36]: 3.46%
- viability, T/C [57]: 3.9%
- viability, T/C [58]: 5.16%
- viability, T/C [59]: 5.53%
- viability, T/C [60]: 2.11%
